Source: patent publication US4443436A, “C-20-Modified macrolide derivatives of the macrolide antibiotics tylosin, desmycosin, macrocin, and lactenocin” (Eli Lilly and Company, priority 1982, dated 1984)
Converted amounts (≈) assume the structure as drawn.

What was measured:
[1] = system: Staphylococcus aureus V41; experiment: MIC, standard agar-dilution assay, Staphylococcus aureus V41; assay type: cell-based; conditions: Staphylococcus aureus V41; penicillin-resistant strain; agar dilution
Mycoplasma hyorhinis = experiment: MIC, broth-dilution microtiter test, Mycoplasma hyorhinis; assay type: cell-based; conditions: Mycoplasma hyorhinis; broth-dilution microtiter
Source text: (§1) The MIC's in Table X were obtained using conventional broth-dilution microtiter tests.

[2] = system: Pasteurella multocida 17E; experiment: MIC, broth-dilution microtiter test, Pasteurella multocida 17E; assay type: cell-based; conditions: Pasteurella multocida 17E; bovine isolate; broth-dilution microtiter
Source text: as §1

Mycoplasma hyopneumoniae = experiment: MIC, broth-dilution microtiter test, Mycoplasma hyopneumoniae; assay type: cell-based; conditions: Mycoplasma hyopneumoniae; broth-dilution microtiter
Source text: as §1

[3] = system: Haemophilus influenzae R252; experiment: MIC, standard agar-dilution assay, Haemophilus influenzae R252; assay type: cell-based; conditions: Haemophilus influenzae R252; ampicillin-resistant strain; agar dilution
Streptococcus bovis 80 = experiment: MIC, broth-dilution microtiter test, Streptococcus bovis 80; assay type: cell-based; conditions: Streptococcus bovis 80; broth-dilution microtiter
Source text: as §1

[4] = system: Pasteurella hemolytica 22C; experiment: MIC, broth-dilution microtiter test, Pasteurella hemolytica 22C; assay type: cell-based; conditions: Pasteurella hemolytica 22C; broth-dilution microtiter
Source text: as §1

[5] = system: Streptococcus pyogenes C203; experiment: In vivo protection of mice experimentally infected with S. pyogenes C203; conditions: mice, doses given 1 and 4 hours post-infection
Method: The C-20 modified derivatives of this invention have shown in vivo antimicrobial activity against experimentally-induced infections in laboratory animals. When two doses of test compound were administered to mice experimentally infected with S. pyogenes C203, the activity observed was measured as an ED50 value [effective dose in mg/kg to protect 50% of the test animals: see Warren Wick, et al., J. Bacteriol. 81, 233-235 (1961)].

[6] = system: Staphylococcus epidermidis EPI2; experiment: MIC, standard agar-dilution assay, Staphylococcus epidermidis EPI2; assay type: cell-based; conditions: Staphylococcus epidermidis EPI2; agar dilution
Staphylococcus aureus = experiment: MIC, broth-dilution microtiter test, Staphylococcus aureus; assay type: cell-based; conditions: broth-dilution microtiter
Source text: as §1

[7] = system: Streptococcus pneumoniae Park I; experiment: microbe, parasite or virus in culture; assay type: cell-based; conditions: Streptococcus pneumoniae Park I; agar dilution
[8] = system: Staphylococcus epidermidis EPI1; experiment: MIC, standard agar-dilution assay, Staphylococcus epidermidis EPI1; assay type: cell-based; conditions: Staphylococcus epidermidis EPI1; agar dilution
[9] = system: Staphylococcus aureus X400; experiment: MIC, standard agar-dilution assay, Staphylococcus aureus X400; assay type: cell-based; conditions: Staphylococcus aureus X400; methicillin-resistant strain; agar dilution
[10] = system: Staphylococcus aureus S13E; experiment: MIC, standard agar-dilution assay, Staphylococcus aureus S13E; assay type: cell-based; conditions: Staphylococcus aureus S13E; agar dilution
Mycoplasma gallisepticum = experiment: MIC, broth-dilution microtiter test, Mycoplasma gallisepticum; assay type: cell-based; conditions: Mycoplasma gallisepticum; broth-dilution microtiter
Source text: as §1

[11] = system: Streptococcus pyogenes C203; experiment: MIC, standard agar-dilution assay, Streptococcus pyogenes C203; assay type: cell-based; conditions: Streptococcus pyogenes C203; agar dilution
Mycoplasma synoviae = experiment: MIC, broth-dilution microtiter test, Mycoplasma synoviae; assay type: cell-based; conditions: Mycoplasma synoviae; broth-dilution microtiter
Source text: as §1

[12] = system: Pasteurella multocida 60A; experiment: MIC, broth-dilution microtiter test, Pasteurella multocida 60A; assay type: cell-based; conditions: Pasteurella multocida 60A; avian isolate; broth-dilution microtiter
Source text: as §1

Streptococcus Group 9960 = experiment: MIC, standard agar-dilution assay, Streptococcus Group 9960; assay type: cell-based; conditions: Streptococcus Group 9960; agar dilution
[13] = system: Streptococcus Group D X66; experiment: MIC, standard agar-dilution assay, Streptococcus Group D X66; assay type: cell-based; conditions: Streptococcus Group D X66; agar dilution
[14] = system: Haemophilus influenzae Holt; experiment: MIC, standard agar-dilution assay, Haemophilus influenzae Holt; assay type: cell-based; conditions: Haemophilus influenzae Holt; ampicillin-sensitive strain; agar dilution
[15] = system: Staphylococcus aureus X1.1; experiment: MIC, standard agar-dilution assay, Staphylococcus aureus X1.1; assay type: cell-based; conditions: Staphylococcus aureus X1.1; agar dilution

Row | Compound | MIC [1] | MIC (Mycoplasma hyorhinis) | MIC [2] | MIC (Mycoplasma hyopneumoniae) | MIC [3] | MIC (Streptococcus bovis 80) | MIC [4] | ED50, Oral [5] | ED50, Subcutaneous [5] | MIC [6] | MIC (Staphylococcus aureus) | MIC [7] | MIC [8] | MIC [9] | MIC [10] | MIC (Mycoplasma gallisepticum) | MIC [11] | MIC (Mycoplasma synoviae) | MIC [12] | MIC (Streptococcus Group 9960) | further results
1 | CCC1OC(=O)CC(O)C(C)C(OC2OC(C)C(O)C(N(C)C)C2O)C(CCOc2ccc(Oc3ccccc3)cc2)CC(C)C(=O)C=CC(C)=CC1COC1OC(C)C(O)C(OC)C1OC (centres unmarked) [Compound 47, 20-DH-20-O-(p-Phenoxyphenyl)desmycosin] | 0.5 µg/mL (≈ 0.531 µM) | 6.25 µg/mL (≈ 6.63 µM) | 25 µg/mL (≈ 26.5 µM) | 3.12 µg/mL (≈ 3.31 µM) | 16 µg/mL (≈ 17 µM) | 0.09 µg/mL (≈ 0.0955 µM) | 25 µg/mL (≈ 26.5 µM) | 29 mg/kg × 2 | > 10 mg/kg × 2 | 0.25 µg/mL (≈ 0.265 µM) | 0.78 µg/mL (≈ 0.828 µM) | 0.25 µg/mL (≈ 0.265 µM) | 0.5 µg/mL (≈ 0.531 µM) | 0.5 µg/mL (≈ 0.531 µM) | 0.25 µg/mL (≈ 0.265 µM) | < 0.05 µg/mL | 0.25 µg/mL (≈ 0.265 µM) | 0.09 µg/mL (≈ 0.0955 µM) | 25 µg/mL (≈ 26.5 µM) | 1 µg/mL (≈ 1.06 µM) | MIC [13]: 0.5 µg/mL (≈ 0.531 µM); MIC [14]: 16 µg/mL (≈ 17 µM); MIC [15]: 0.5 µg/mL (≈ 0.531 µM)
2 | CCC1OC(=O)CC(O)C(C)C(OC2OC(C)C(O)C(N(C)C)C2O)C(CCOc2cccc(Oc3ccccc3)c2)CC(C)C(=O)C=CC(C)=CC1COC1OC(C)C(O)C(OC)C1OC (centres unmarked) [Compound 48, 20-DH-20-O-(m-Phenoxyphenyl)desmycosin] | 0.5 µg/mL (≈ 0.531 µM) | 12.5 µg/mL (≈ 13.3 µM) | 25 µg/mL (≈ 26.5 µM) | 1.56 µg/mL (≈ 1.66 µM) | 16 µg/mL (≈ 17 µM) | 0.09 µg/mL (≈ 0.0955 µM) | 25 µg/mL (≈ 26.5 µM) | 35 mg/kg × 2 | > 10 mg/kg × 2 | 0.25 µg/mL (≈ 0.265 µM) | 0.78 µg/mL (≈ 0.828 µM) | 0.25 µg/mL (≈ 0.265 µM) | 0.5 µg/mL (≈ 0.531 µM) | 0.5 µg/mL (≈ 0.531 µM) | 0.5 µg/mL (≈ 0.531 µM) | < 0.05 µg/mL | 0.25 µg/mL (≈ 0.265 µM) | 0.19 µg/mL (≈ 0.202 µM) | 25 µg/mL (≈ 26.5 µM) | 1 µg/mL (≈ 1.06 µM) | MIC [13]: 0.5 µg/mL (≈ 0.531 µM); MIC [14]: 16 µg/mL (≈ 17 µM); MIC [15]: 0.5 µg/mL (≈ 0.531 µM)
3 | CCC1OC(=O)CC(O)C(C)C(OC2OC(C)C(O)C(N(C)C)C2O)C(CCOc2ccccc2)CC(C)C(=O)C=CC(C)=CC1COC1OC(C)C(O)C(O)C1OC (centres unmarked) [Compound 58, 20-DH-20-O-Phenyllactenocin] | 0.25 µg/mL (≈ 0.299 µM) | 50 µg/mL (≈ 59.8 µM) | 25 µg/mL (≈ 29.9 µM) | 6.25 µg/mL (≈ 7.48 µM) | 16 µg/mL (≈ 19.1 µM) | 1.56 µg/mL (≈ 1.87 µM) | 25 µg/mL (≈ 29.9 µM) | 50 mg/kg × 2 | 3.2 mg/kg × 2 | 0.25 µg/mL (≈ 0.299 µM) | 0.39 µg/mL (≈ 0.466 µM) | 0.25 µg/mL (≈ 0.299 µM) | 0.25 µg/mL (≈ 0.299 µM) | 0.25 µg/mL (≈ 0.299 µM) | 0.25 µg/mL (≈ 0.299 µM) | 0.78 µg/mL (≈ 0.933 µM) | 0.06 µg/mL (≈ 0.0718 µM) | 6.25 µg/mL (≈ 7.48 µM) | 12.5 µg/mL (≈ 15 µM) | 8 µg/mL (≈ 9.57 µM) | MIC [13]: 4 µg/mL (≈ 4.78 µM); MIC [14]: 32 µg/mL (≈ 38.3 µM); MIC [15]: 0.25 µg/mL (≈ 0.299 µM)
4 | CCC1OC(=O)CC(O)C(C)C(OC2OC(C)C(O)C(N(C)C)C2OC(C)=O)C(CCOc2ccccc2)CC(C)C(=O)C=CC(C)=CC1COC1OC(C)C(O)C(OC)C1OC (centres unmarked) [Compound 67, 20-DH-20-O-Phenyl-2'-O-acetyldesmycosin] | 0.25 µg/mL (≈ 0.28 µM) | 50 µg/mL (≈ 56 µM) | 25 µg/mL (≈ 28 µM) | 12.5 µg/mL (≈ 14 µM) | 16 µg/mL (≈ 17.9 µM) | 12.5 µg/mL (≈ 14 µM) | 25 µg/mL (≈ 28 µM) | 9 mg/kg × 2 | 1.0 mg/kg × 2 | 0.12 µg/mL (≈ 0.135 µM) | 0.78 µg/mL (≈ 0.874 µM) | 0.25 µg/mL (≈ 0.28 µM) | 0.25 µg/mL (≈ 0.28 µM) | 0.5 µg/mL (≈ 0.56 µM) | 0.25 µg/mL (≈ 0.28 µM) | 0.39 µg/mL (≈ 0.437 µM) | 1 µg/mL (≈ 1.12 µM) | 3.12 µg/mL (≈ 3.5 µM) | 25 µg/mL (≈ 28 µM) | 8 µg/mL (≈ 8.97 µM) | MIC [13]: 4 µg/mL (≈ 4.48 µM); MIC [14]: 32 µg/mL (≈ 35.9 µM); MIC [15]: 0.25 µg/mL (≈ 0.28 µM)
